Drawing on ChEMBL document CHEMBL3046435, “Isolation and identification of insecticidal components from Citrus aurantium fruit peel extract” (2008), this text covers mortality and Activity for 3 compounds.

The source made the active and inactive calls. The calls are words filed in the database; no cut-off is given here.

Assay [1] has as its system Bactrocera oleae. In words: Insecticidal activity against Bactrocera oleae exposed to 1.12 ug/cm2 compound for 12 hr assessed as insect mortality measured 72 hr post dose by petri dish exposure bioassay (reference value: 2 +/- 2%). The assay is classed as functional.
The test system of assay [2] is Bactrocera oleae. Nature of the assay: Insecticidal activity against Bactrocera oleae exposed to 0.45 ug/cm2 compound for 12 hr assessed as insect mortality measured 72 hr post dose by petri dish exposure bioassay (reference value: 2 +/- 2%). In kind it is functional, organism-based.
In assay [3] the test system is Bactrocera oleae. In words: Insecticidal activity against Bactrocera oleae exposed to compound for 12 hr assessed as insect mortality measured 72 hr post dose by petri dish exposure bioassay (reference value: 2 +/- 2%). The assay is classed as functional, organism-based.

In the case of `C/C(=C\COc1c2ccoc2cc2oc(=O)ccc12)CCC1OC1(C)C` (centres undefined) [6',7'-EPOXYBERGAMOTTIN], the mortality with Bactrocera oleae [1] is reported as 48%.
With `COc1ccc2ccc(=O)oc2c1CC=C(C)C`, the result with Bactrocera oleae [2] was inactive.
Turning to `COc1c2ccoc2cc2oc(=O)ccc12`, the outcome with Bactrocera oleae [3] and in the assay on Bactrocera oleae [2] was inactive.

By mortality is commonly meant the percentage killed.
